The values below come from PubChem BioAssay AID651630 (Sanford-Burnham Center for Chemical Genomics, 2012).

One test has as its system DAPI. The test can be described thus: triacylglycerol accumulation inhibitor potency, dose response, cell-based, panel, Nile Red and DAPI fluorescence, H9c2 (AID 651630).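 Further: cells exposed to compound overnight before fixation and staining.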 The conditions noted are these: H9c2 cells, DAPI nuclear fluorescence (cytotoxicity counter-readout), oleic acid.
The next test has as its system TAG. Described as above. The settings on record: H9c2 cells, Nile Red TAG fluorescence, oleic acid.

pIC50: −log10 of the molar value. The source made the active and inactive calls.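 How the source made its calls: active means lipid-stain IC50 at or below a set limit, with nuclear-stain toxicity IC50 at least five times higher; inactive means the rest.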

The pIC50 is −log10 of the IC50, conventionally taken in molar units. The term IC50 denotes the point on the concentration scale where inhibition reaches its midpoint.

Turning to `CN1N=C(N)c2cn(C3OC(COP(=O)(O)O)C(O)C3O)c3ncnc1c23` (configuration not stated), the IC50 cytotoxicity (DAPI nuclear signal decrease) in the test on DAPI (mean of runs) was 7.78 µM (inactive); in the test on DAPI (run 1), 6.76 µM; in the test on DAPI (run 2) it was 8.79 µM. Also, the pIC50 in the test with TAG (mean of runs) is 4.91; in the test on TAG (run 1), 4.96; in the test with TAG (run 2) it was 4.87.
Take `Cc1nn2c(N3CCCC3)cc(C(C)C)nc2c1-c1ccccc1`: the results for the IC50 cytotoxicity (DAPI nuclear signal decrease) with DAPI (mean of runs), in the test on DAPI (run 1) and in the test on DAPI (run 2) were > 25 µM (inactive), above 25 µM and above 25 µM, respectively. For the same compound, the IC50 in the test on TAG (mean of runs) was > 25 µM (inactive). The pIC50 with TAG (run 1) and with TAG (run 2) was below 4.60 throughout.
Consider `CCOC(=O)/C(=N\Nc1ccc(Cl)cc1)c1csc(Nc2ccccc2)n1`, for which the IC50 cytotoxicity (DAPI nuclear signal decrease) is 22.5 µM (inactive) in the test on DAPI (mean of runs), 20.6 µM with DAPI (run 1) and 24.4 µM with DAPI (run 2). Moreover, the pIC50 in the test on TAG (mean of runs) was 5.19; in the test on TAG (run 1), 5.20; in the test with TAG (run 2), 5.17.
Turning to `COc1cc(C#Cc2c(-c3cncn3C)n(C)c3ccc(-c4ccc5cc[nH]c5c4)cc23)cc(OC)c1`, the IC50 cytotoxicity (DAPI nuclear signal decrease) in the test on DAPI (mean of runs) was > 25 µM (inactive); in the test on DAPI (run 1), above 25 µM; in the test with DAPI (run 2) it was above 25 µM. Besides, the pIC50 with TAG (mean of runs) was 4.93; in the test with TAG (run 1), 4.92; in the test with TAG (run 2) it was 4.95.
For `COc1ccc2sc(-c3ccc(S(C)(=O)=O)cc3)c(C#Cc3cncn3C)c2c1`, the IC50 cytotoxicity (DAPI nuclear signal decrease) in the test with DAPI (mean of runs) was > 25 µM (inactive); in the test with DAPI (run 1) it was above 25 µM; in the test on DAPI (run 2) it was above 25 µM. Further, the IC50 with TAG (mean of runs) is > 25 µM (inactive). Further, the pIC50 in the test with TAG (run 1) and in the test on TAG (run 2) was below 4.60 each time.
`COc1ccc(-c2cnnc(N/N=C/c3ccc(-c4ccc([N+](=O)[O-])cc4)o3)n2)cc1`: the IC50 cytotoxicity (DAPI nuclear signal decrease) in the test with DAPI (mean of runs) was > 25 µM (inactive); with DAPI (run 1), above 25 µM; in the test on DAPI (run 2), above 25 µM. In addition, the negative-log IC50 (pIC50) in the test on TAG (mean of runs) was 4.96; with TAG (run 1) it was 4.94; in the test on TAG (run 2), 4.98.
With `CCOC(=O)c1[nH]c2ccc(OCC)cc2c1NC(=O)CN1CCN(c2ccccc2)CC1`, the IC50 cytotoxicity (DAPI nuclear signal decrease) in the test with DAPI (mean of runs) was > 25 µM (inactive); with DAPI (run 1), above 25 µM; in the test on DAPI (run 2), above 25 µM. Besides, in the test with TAG (mean of runs), the IC50 is 22.7 µM (inactive). In addition, the pIC50 with TAG (run 1) was 4.69; in the test on TAG (run 2), 4.60.
In the case of `CS(=O)(=O)c1ccc(C(=O)OCC(=O)N2CCOCC2)cc1[N+](=O)[O-]`, the IC50 cytotoxicity (DAPI nuclear signal decrease) in the test on DAPI (mean of runs) was > 25 µM (inactive); in the test with DAPI (run 1), above 25 µM; in the test on DAPI (run 2), above 25 µM. The IC50 in the test with TAG (mean of runs) was > 25 µM (inactive). The negative-log IC50 (pIC50) with TAG (run 1) and with TAG (run 2) was below 4.60 in each case.
On to `CCC(C)(C)NC(=O)C(c1ccc(OC)cc1)N(Cc1ccco1)C(=O)CCC(=O)Nc1cc(C)on1` (configuration not stated), for which the IC50 cytotoxicity (DAPI nuclear signal decrease) in the test with DAPI (mean of runs) is > 25 µM (inactive); in the test with DAPI (run 1) it was above 25 µM; in the test with DAPI (run 2), above 25 µM. Further, the IC50 in the test on TAG (mean of runs) was 17.9 µM (inactive). The pIC50 in the test on TAG (run 1) was 4.68; with TAG (run 2), 4.83.
Regarding `COc1ccc(CNC(=O)c2ccc(N3CCC4(CC3)CC(c3ccc(Cl)cc3)=NO4)c(NC(=O)Cc3ccc(F)cc3)c2)cc1`, the IC50 cytotoxicity (DAPI nuclear signal decrease) with DAPI (mean of runs) is > 25 µM (inactive); in the test on DAPI (run 1), above 25 µM; with DAPI (run 2), above 25 µM. Also, in the test with TAG (mean of runs), the IC50 was > 25 µM (inactive). In addition, the pIC50 in the test with TAG (run 1) and in the test on TAG (run 2) was below 4.60 in each case.
Take `CNC(=S)NN=C(C)c1ccc(OC)cc1O`: the results for the IC50 cytotoxicity (DAPI nuclear signal decrease) with DAPI (mean of runs), in the test on DAPI (run 1) and in the test on DAPI (run 2) were > 25 µM (inactive), above 25 µM and above 25 µM, respectively. Besides, the IC50 with TAG (mean of runs) is > 25 µM (inactive). The pIC50 with TAG (run 1) and in the test with TAG (run 2) was below 4.60 throughout.
For `CCCCc1ccc(N=N/C(C(=O)Nc2cc(OC)c(NC(C)=O)cc2OC)=C(/C)O)cc1`, the IC50 cytotoxicity (DAPI nuclear signal decrease) with DAPI (mean of runs) is > 25 µM (inactive); with DAPI (run 1) it was above 25 µM; in the test on DAPI (run 2) it was above 25 µM. In addition, the pIC50 with TAG (mean of runs) is 5.00; with TAG (run 1), 4.94; in the test with TAG (run 2), 5.06.
In the case of `O=C1C(Cl)=C(NCc2ccco2)C(=O)c2ccccc21`, the IC50 cytotoxicity (DAPI nuclear signal decrease) in the test on DAPI (mean of runs) was > 25 µM (inactive); with DAPI (run 1), above 25 µM; in the test on DAPI (run 2), above 25 µM. Further, the IC50 in the test with TAG (mean of runs) is > 25 µM (inactive). Further, the negative-log IC50 (pIC50) in the test with TAG (run 1) and with TAG (run 2) was below 4.60 each time.
Turning to `COc1ccc(-c2ccc3[nH]c4c(c3c2)CCN2C[C@@H]([C@H](C)OC(=O)Nc3cc(Cl)cc(Cl)c3)[C@@H](N(C)C(=O)Nc3cc(Cl)cc(Cl)c3)C[C@@H]42)cc1`, the IC50 cytotoxicity (DAPI nuclear signal decrease) was > 25 µM (inactive) in the test with DAPI (mean of runs), above 25 µM in the test with DAPI (run 1) and above 25 µM in the test with DAPI (run 2). Besides, the results for the pIC50 with TAG (mean of runs), in the test on TAG (run 1) and in the test on TAG (run 2) were 4.94, 5.03 and 4.86, respectively.
`CCN1C(=O)[C@H]2[C@@H](c3ccc(-c4ccccc4)c(OC)c3)N[C@@](CC(C)C)(C(=O)OC)[C@H]2C1=O`: the IC50 cytotoxicity (DAPI nuclear signal decrease) is > 25 µM (inactive) with DAPI (mean of runs), above 25 µM with DAPI (run 1) and above 25 µM in the test on DAPI (run 2). The negative logarithm of the IC50 (pIC50) with TAG (mean of runs) was 4.99; with TAG (run 1), 4.91; with TAG (run 2), 5.09.
Regarding `CCOc1ccc(CCNC(=O)c2cc3sc(Cl)cc3n2C)cc1OCC`, the IC50 cytotoxicity (DAPI nuclear signal decrease) is > 25 µM (inactive) with DAPI (mean of runs), above 25 µM with DAPI (run 1) and above 25 µM with DAPI (run 2). Also, the pIC50 is 5.24 in the test with TAG (mean of runs), 5.11 in the test with TAG (run 1) and 5.42 in the test with TAG (run 2).
With `COc1ccccc1NC1=NC(c2ccc(Cl)cc2)N=C(N)N1` (configuration not stated), the IC50 cytotoxicity (DAPI nuclear signal decrease) in the test with DAPI (mean of runs) was > 25 µM (inactive); in the test on DAPI (run 1), above 25 µM; in the test with DAPI (run 2), above 25 µM. For the same compound, in the test with TAG (mean of runs), the IC50 is > 25 µM (inactive). Further, the negative-log IC50 (pIC50) with TAG (run 1) and in the test on TAG (run 2) was below 4.60 each time.
Regarding `Cc1ccc(/C=N/NC(=O)c2cc(-c3cccnc3)nc3ccccc23)cc1`, the values for the IC50 cytotoxicity (DAPI nuclear signal decrease) in the test with DAPI (mean of runs), in the test with DAPI (run 1) and in the test on DAPI (run 2) were > 25 µM (inactive), above 25 µM and above 25 µM, respectively. Also, in the test on TAG (mean of runs), the IC50 is > 25 µM (inactive). Besides, the pIC50 in the test on TAG (run 1) and in the test on TAG (run 2) was below 4.60 throughout.
For the compound `COc1ccc2[nH]c(C)c(CCNCc3cn(C)c4ccccc34)c2c1`, the IC50 cytotoxicity (DAPI nuclear signal decrease) in the test with DAPI (mean of runs) is > 25 µM (inactive); in the test with DAPI (run 1), above 25 µM; in the test on DAPI (run 2) it was above 25 µM. Further, the pIC50 with TAG (mean of runs) is 4.97; with TAG (run 1) it was 4.99; in the test with TAG (run 2), 4.95.
For `CCCOC(=O)c1ccc(NC(=O)CCOc2ccccc2)cc1`, the IC50 cytotoxicity (DAPI nuclear signal decrease) in the test on DAPI (mean of runs) was > 25 µM (inactive); in the test with DAPI (run 1), above 25 µM; in the test on DAPI (run 2) it was above 25 µM. Further, the IC50 in the test with TAG (mean of runs) was 21.5 µM (inactive). The negative-log IC50 (pIC50) in the test on TAG (run 1) is 4.74; in the test with TAG (run 2), 4.61.
Turning to `C[C@H]1CN([C@@H](C)CO)C(=O)Cc2cc(NC(=O)CCC(F)(F)F)ccc2O[C@H]1CN(C)S(=O)(=O)c1ccc(Cl)cc1`, the IC50 cytotoxicity (DAPI nuclear signal decrease) in the test with DAPI (mean of runs) was > 25 µM (inactive); in the test on DAPI (run 1), above 25 µM; in the test on DAPI (run 2), above 25 µM. The IC50 in the test on TAG (mean of runs) is > 25 µM (inactive). Further, the negative-log IC50 (pIC50) in the test on TAG (run 1) and with TAG (run 2) was below 4.60 each time.
`CCCCCc1ccc(-c2cn(Cc3ccc(C(=O)c4ccccc4)cc3)nn2)cc1`: the IC50 cytotoxicity (DAPI nuclear signal decrease) was > 25 µM (inactive) in the test with DAPI (mean of runs), above 25 µM in the test with DAPI (run 1) and above 25 µM in the test with DAPI (run 2). In addition, the negative-log IC50 (pIC50) in the test with TAG (run 1) was 4.75; in the test on TAG (run 2) it was below 4.60.
Take `FC(F)Oc1ccc(-c2csc(NNC3=NCCCCC3)n2)cc1`: the IC50 cytotoxicity (DAPI nuclear signal decrease) in the test on DAPI (run 1) and with DAPI (run 2) was above 25 µM throughout. Also, the pIC50 is 5.59 in the test with TAG (mean of runs), 5.64 in the test on TAG (run 1) and 5.55 with TAG (run 2).
With `Cc1cccc(NC(=O)c2ccc([N+](=O)[O-])o2)c1C`, the IC50 cytotoxicity (DAPI nuclear signal decrease) in the test with DAPI (mean of runs) was 10.3 µM (inactive); in the test with DAPI (run 1), 9.7 µM; with DAPI (run 2), 10.9 µM. For the same compound, the values for the pIC50 in the test on TAG (run 1) and in the test with TAG (run 2) were 4.70 and below 4.60, respectively.
In the case of `Cc1cccc(NC(=O)C(C)Sc2nc3ccccc3c(=O)n2CCCN2CCOCC2)c1` (configuration not stated), the results for the IC50 cytotoxicity (DAPI nuclear signal decrease) with DAPI (mean of runs), in the test on DAPI (run 1) and in the test with DAPI (run 2) were > 25 µM (inactive), above 25 µM and above 25 µM, respectively. Further, the IC50 with TAG (mean of runs) is 20.5 µM (inactive). Further, the negative-log IC50 (pIC50) in the test on TAG (run 1) and in the test on TAG (run 2) was 4.69 each time.
Regarding `COc1ccc(NC(=O)Cn2c(=O)n(-c3ccc(CC(=O)NCc4ccco4)cc3)c(=O)c3ccccc32)cc1`, the results for the IC50 cytotoxicity (DAPI nuclear signal decrease) in the test on DAPI (mean of runs), with DAPI (run 1) and in the test with DAPI (run 2) were > 25 µM (inactive), above 25 µM and above 25 µM, respectively. In addition, the negative-log IC50 (pIC50) in the test on TAG (run 1) was 4.61; in the test on TAG (run 2), below 4.60.
